Data: PMC4907212, “Mucosal and blood-brain barrier transport kinetics of the plant N-alkylamide spilanthol using in vitro and in vivo models” (BMC Complementary and Alternative Medicine, 2016)
Where two headings read alike, the source gives them in different places.

What was measured:
[1] = design: method as in PMID 20227845, PMID 19808085, PMID 23583736; conditions: human skin, topical application; cited from earlier work
[2] = Caco-2 cell permeability assay (Transwell, ab and ba direction); type: in vitro ADME, human; conditions: human; for Papp A→B at 120 min, 10 μg/ml / Papp B→A at 120 min, 10 μg/ml: mean ± SD, n = 2; for Papp A→B at 120 min, 10 μg/ml: read-out: apparent permeability coefficient (Papp), apical-to-basolateral; for Papp B→A at 120 min, 10 μg/ml: read-out: apparent permeability coefficient (Papp), basolateral-to-apical; for efflux ratio at 120 min, 10 μg/ml: read-out: efflux ratio (Papp,ba/Papp,ab)
Protocol: (§1) Caco-2 cells, originating from a human colorectal carcinoma were maintained in Dulbecco's modified Eagle's medium (DMEM) at 95 % humidity and 37 °C in an atmosphere of 5 % CO2, supplemented with 10 % (V/V) fetal bovine serum, 2 mM L-glutamine and 1 % non-essential amino acids (100x), 100 U/ml penicillin and 100 μg/ml streptomycin (all from Invitrogen/GIBCO, Ghent, Belgium). The Caco-2 cell intestinal model was used as a model for the gut mucosa to investigate the permeation of spilanthol. Caco-2 cells were seeded at a density of 2.6 · 10^5 cells/cm^2 cells for each Transwell (Corning Costar, New York, USA) membrane insert filter (0.4 μm pore size, 12 mm filter diameter) and cultivated in the described supplemented DMEM, also containing 100 units/ml penicillin and 100 μg/ml streptomycin. The medium was changed every second day. The cells were allowed to grow and differentiate for 21-29 days until monolayers were formed. Intact membranes/integrity of the monolayers were checked via the measurement of transepithelial electrical resistance (TEER) of the monolayers using the Millicell-ERS system (Millipore Corp., Bedford, MA, USA) before and after transport experiments. The experiment was performed in duplicate for each dose solution. Transport experiments were carried out in the apical-to-basolateral (ab) direction and in the basolateral-to-apical (ba) direction in Hanks' Balanced Salt solution, according to Hubatsch et al.. Two dose solutions of purified spilanthol at 10 μg/ml were tested, differing in solvent: 0.5 % ethanol (further indicated as DS1) and 0.5 % of a mixture of vitamin E-TPGS (33.3 %), ethanol (11.1 %), PEG 400 (33.3 %) and PG (22.2 %) (further indicated as DS2) dissolved in HBSS. Final volumes of 0.4 ml apically and 1.2 ml basolaterally were used for 12-mm filter supports during the transport experiment. Samples were taken at 15, 30, 60, 90 and 120 min from the acceptor (= receiver) compartment (basolateral to apical transport: 100 μl; apical to basolateral transport: 300 μl) and were immediately replaced by fresh HBSS. […] Quantification of spilanthol was conducted using the UPLC-MS^2 method as described below. The apparent permeability coefficient (Papp in cm/s) of spilanthol was calculated from a non-sink equation. From Fick's first law: J = - […] is the diffusion coefficient, J is the flux or transfer rate along the donor-to-receptor side, x is the distance from the donor compartment and C(x) is the concentration in the barrier at the coordinate x in the barrier), the following differential equation is derived: dMr(t)/dt = Papp × […])], in which Mr is the amount of substance in the receiver chamber, Papp is the apparent permeability coefficient (a product of distribution coefficient with diffusion coefficient divided by the barrier thickness), A is the cross-sectional area of the barrier, Cd is the donor concentration and Cr is the receiver concentration. This differential equation is the basis to calculate Papp values of compounds requiring sink, as well as non-sink conditions with different initial conditions to solve this equation. […] Non-linear curve fitting by minimisation of the sum of squared residuals (SSR) was used to obtain the Papp. The efflux ratio is calculated as Papp,ba/Papp,ab, while the uptake ratio is calculated as Papp,ab/Papp,ba.

Caco-2 cell monolayer = assay: as above; type: in vitro ADME, human
Protocol: as §1

[3] = design: method as in PMID 20227845, PMID 19808085, PMID 23583736; conditions: porcine buccal mucosa; cited from earlier work
[4] = Capillary depletion (distribution brain parenchyma versus capillaries); type: in vivo, ICR-CD-1 mice; conditions: female, ICR-CD-1, mouse, iv, 80 μg per mouse, mice, 10 min after i.v. injection
Protocol: To investigate the distribution of spilanthol in the parenchyma and capillaries of the brain, a capillary depletion experiment was performed. By means of this experiment, it is possible to distinguish the transport of spilanthol into the brain (represented by the parenchyma) and part of spilanthol which is trapped by the endothelial cells of the brain (represented by the capillaries). The method of Triguero et al., as modified by Gutierrez et al., was used. Briefly, after anesthetizing the mice intraperitoneally with 40 % (w/V) urethane solution (3 g/kg), 20 μl of the 4 mg/ml spilanthol dose solution was injected into the jugular vein. Blood was collected from the abdominal aorta ten min after injection and serum was obtained by centrifuging the blood at 10 000 g during 15 min at 21 °C. Immediately after blood collection, the skin of the mice’s chest is removed to clamp the aorta and the jugular veins are severed. Immediately after clamping the aorta, the brain is perfused manually with 20 ml of Lactated Ringer’s solution. […]
The distribution was calculated as follows: Fraction%=Mtissue/Mcapillaries+Mparenchyma×100 where Mtissue represents the amount of spilanthol in the capillaries, respectively parenchyma; Mcapillaries the amount of spilanthol in the capillaries and Mparenchyma the amount of spilanthol in the parenchyma.

For `C/C=C/C=C\CC/C=C/C(=O)NCC(C)C` [spilanthol, deca-2E,6Z,8E-trienoic acid isobutylamide], the “permeability coefficient Kp,aq” value [1] is given as 0.919 ×10⁻⁶ cm/s, the Papp A→B at 120 min, 10 μg/ml ([2]; Caco-2, DS1 (10 μg/ml purified spilanthol, 0.5 % ethanol in HBSS)) is given as 84.2 ×10⁻⁶ cm/s and the Papp B→A at 120 min, 10 μg/ml ([2]; Caco-2, DS1) is given as 102 ×10⁻⁶ cm/s. For the same compound, the efflux ratio at 120 min, 10 μg/ml ([2]; Caco-2, DS1) was 1.21, the Papp A→B at 120 min, 10 μg/ml ([2]; Caco-2, DS2 (10 μg/ml, 0.5 % vitamin E-TPGS/ethanol/PEG 400/PG mixture in HBSS)) was 56.1 ×10⁻⁶ cm/s and the Papp B→A at 120 min, 10 μg/ml ([2]; Caco-2, DS2) was 52 ×10⁻⁶ cm/s. For the same compound, the efflux ratio at 120 min, 10 μg/ml ([2]; Caco-2, DS2) was 0.93, the recovery at 120 min, 10 μg/ml ([2]; Caco-2, donor plus acceptor at last time point (120 min), read-out: mass balance, total recovery) was 105 to 121% and the “uptake ratio (Papp,ab/Papp,ba)” value (Caco-2 cell monolayer; DS1) was 0.82. The “amount of spilanthol permeated, apical-to-basolateral” value (Caco-2 cell monolayer; DS1, after 120 min) was 3.20 µg, the “amount of spilanthol permeated, basolateral-to-apical” value (Caco-2 cell monolayer; DS1, after 120 min) was 3.86 µg and the “percentage of applied spilanthol permeated, apical-to-basolateral” value (Caco-2 cell monolayer; DS1, after 120 min) was 79.8%. The “percentage of applied spilanthol permeated, basolateral-to-apical” value (Caco-2 cell monolayer; DS1, after 120 min) was 32.1%, the “uptake ratio (Papp,ab/Papp,ba)” value (Caco-2 cell monolayer; DS2) was 1.08 and the “amount of spilanthol permeated, apical-to-basolateral” value (Caco-2 cell monolayer; DS2, after 120 min) was 2.47 µg. The “amount of spilanthol permeated, basolateral-to-apical” value (Caco-2 cell monolayer; DS2, after 120 min) was 2.49 µg, the “percentage of applied spilanthol permeated, apical-to-basolateral” value (Caco-2 cell monolayer; DS2, after 120 min) was 64.3% and the “percentage of applied spilanthol permeated, basolateral-to-apical” value (Caco-2 cell monolayer; DS2, after 120 min) was 21.6%. For the same compound, the “percentage of applied DS permeated, apical-to-basolateral (absorptive direction)” value (Caco-2 cell monolayer; after 120 min, DS1 and DS2) was 64–80%, the “difference in Papp values between apical-to-basolateral and basolateral-to-apical direction” value (Caco-2 cell monolayer; both dose solutions) was “less than 2 fold” and the “permeability coefficient Kp,aq” value [3] was 3.14 ×10⁻⁶ cm/s. For the same compound, the Kp at 10 min ([4]; brain capillaries/serum, read-out: spilanthol in brain capillaries (brain/serum ratio)) was 0.0024 and the Kp at 10 min ([4]; brain parenchyma/serum, read-out: spilanthol in brain parenchyma (brain/serum ratio)) was 0.138.
